Measurements published in US20170198354A1, “METHODS OF GLUCOCORTICOID THERAPY AND DETERMINING RESPONSIVENESS THEREOF” (YISSUM RESEARCH DEVELOPMENT COMPANY OF THE HEBREW …, priority 2014, published 2017).

Columns and labels:
Type in all cases: cell-based, human
[1] = tested on: miRNAs; experiment: Deep sequencing of small RNAs; conditions: CEM-C7H2, Dex 24 hrs
Experimental: RNA of cell samples was extracted by Tri-reagent. 1 μg of each sample was sequenced on an Illumina Genome Analyzer as described by Son et al, Curr Protoc Microbiol; Chapter 1: Unit 1E 4. Data analysis was performed by a miRNAkey application Ronen et al., Bioinformatics; 26(20):2615-2616.

[2] = tested on: PANK3-GRE; experiment: Chromatin immunoprecipitation of PANK3-GRE; conditions: CEM-C7H2
Experimental: The EpiTech ChIP OneDay kit (Qiagen) was employed. IP antibodies used were: Rabbit-IgG (Qiagen), anti-GR (cell signaling) and anti-H3K4me1 (abcam). qRT-PCR was performed by syber green enzyme with the following primers: PANK3-GRE, GAPDH positive control and MYOD1 negative control (Qiagen). GR-GRE primers were planned as follow: Fw-5′ […] 3′ and 5′ […] 3′. % Enrichment was calculated according to the formula: 2̂(CT Mean(Input)−CT Mean of (Interested fraction))*100.

[3] = tested on: MOLT-4, CUTLL, BJAB and SUD-136 cells; experiment: Apoptosis by PI uptake (flow cytometry), GC-resistant cell lines; conditions: for Conferring GC sensitivity (GCIA) by miRNA transfection: BJAB and MOLT-4 transfected with miRNA overexpression plasmids; for Conferring GC sensitivity (GCIA) by miRNA transfection / miR-103-mediated GCIA after re-expression of miR-17˜92a members: Dex 72 hrs; for miR-103-mediated GCIA after re-expression of miR-17˜92a members: miR-103 overexpressing BJAB
Text: (§1) Cell lines models of human T-cell acute lymphocytic leukemia (T-ALL) and Burkitt's lymphoma (BL), including the glucocorticoid (GC) sensitive cells represented by CEM-C7H2 (T-ALL, the sensitive sub-clone of CCRF-CEM), LOUCY (T-ALL) and DAUDI (BL), and the GC resistant cells represented by MOLT-4 (T-ALL), CUTLL (T-ALL), BJAB (BL) and SUD-136 (BL) were used. At least three kinds of cells were used in each type of cancer in order to minimize cell type specific variables. In addition, two types of malignancies were examined, T-ALL to represent leukemia behavior and BL to represent lymphoma behavior. Bone marrow cells were collected from normal donors and ALL patients. All experiments with human cells were approved by an institutional Helsinki committee and the Ministry of Health. Dexamethasone (DEX), RU486, Propidium iodide (PI), puromycin and Tri-reagent were purchased from sigma and TransIT-LT1 from Mirus.
(§2) Cells were treated with 100 nM Dex for 72 hrs. Percent apoptotic cells was determined by PI-uptake as measured in a FACS Calibur flow cytometer (BD).

[4] = tested on: GR; experiment: GR expression (western blot / mRNA RQ)
Experimental: (§3) Total lysate of 10^6 cells was prepared in 50 μl protein sample buffer (PSB) ×1.5. The following antibodies were used for immuno-blotting: anti-β-Catenin and anti-GR (BD Transduction Laboratories); anti-BIM (Calbichem); anti-CDK2, anti-c-Myb, anti-DVL1 and anti-c-Myc (Santa Cruz Biotechnology); anti-cycline E1 (Cell Signaling Technology); and anti-a-Tubulin (Sigma). Immune-blots images are presented by Image Lab 3.0 software. Specific bands were cropped by transferring images to Adobe Photoshop CS5.
(§4) Total RNA was isolated using miRNeasy mini kit (QIAGEN). For Syber green assay, precipitated RNA samples were treated with Poly A Tailing kit (Ambion). c-DNA was prepared by M-MLV reverse transcriptase (Invitrogen). q-PCR amplification of mRNA was operated by Platinum SYBER Green (Invitrogen) with the following primers: FKBP5 5′ […] 3′ and 5′ GTCTCCAATCATCGGCGTT 3′, SGK1 5′ […] 3′ and 5′ […] 3′. For Taqman based PCR, c-DNA was prepared by Taqman MicroRNA Reverse Transcription Kit (Applied Biosystem). q-PCR was performed using TaqMan 2× Universal PCR Master Mix (Applied Biosystem).

[5] = tested on: BIM; experiment: BIM expression (western blot / mRNA RQ)
Experimental: as §3, §4

[6] = tested on: BJAB cells; experiment: Total cell number / viability by flow cytometry; conditions: miR-103 overexpressing BJAB
Experimental: FIGS. 6A-E: miR-103 inhibits cellular proliferation. (A) Relative Quantification of miR-103 in BM cells of […]. (B) CEM-C7H2, BJAB and miR-103 overexpressing BJAB cells were treated with Dex (24 hrs), labeled with BRDU (1 hr), fixed and analyzed by flow cytometry. (C) miR-103 overexpressing BJAB, SUD-136, DAUDI and MOLT-4 cells were treated with Dex for 72 hrs. Cellular proliferation was measured by BRDU staining. (D) miR-103 overexpressing BJAB cells were treated with Dex and/or RU486 for 72 hrs. Cell viability was determined by flow cytometry. (E) miR-103 overexpression or sponged cells were treated with Dex and then subjected to western blot analysis using anti Cyclin E1 and CDK2 antibodies. C=Untreated, D=Dex-treated.

[7] = tested on: DVL1 and β-Catenin; experiment: DVL1 and β-Catenin expression (western blot)
Experimental: as §3

[8] = tested on: miR-17˜92a; experiment: miR-17~92a cluster expression (RQ / fold change); conditions: resistant BJAB
Experimental: RNA of cell samples was extracted by Tri-reagent. 1 μg of each sample was sequenced on an Illumina Genome Analyzer as described by Son et al, Curr Protoc Microbiol; Chapter 1: Unit 1E 4.
Total RNA was isolated using miRNeasy mini kit (QIAGEN). For Syber green assay, precipitated RNA samples were treated with Poly A Tailing kit (Ambion). c-DNA was prepared by M-MLV reverse transcriptase (Invitrogen). q-PCR amplification of mRNA was operated by Platinum SYBER Green (Invitrogen) with the following primers: FKBP5 5′ […] 3′ and 5′ […] 3′, SGK1 5′ […] 3′ and 5′ […] 3′. For Taqman based PCR, c-DNA was prepared by Taqman MicroRNA Reverse Transcription Kit (Applied Biosystem). q-PCR was performed using TaqMan 2× Universal PCR Master Mix (Applied Biosystem).

[9] = tested on: cycline E1 and CDK2; experiment: Cycline E1 and CDK2 expression (western blot / RQ); conditions: miR-103 overexpressing cells
Experimental: as §3, §4

[10] = tested on: CEM-C7H2, BJAB, SUD-136, DAUDI and MOLT-4 cells; experiment: BRDU incorporation cellular proliferation assay; conditions: miR-103 overexpressing cells, no Dex
Text: A BrdU Cell Proliferation Assay kit (Exalpha Biological, Inc) or a BrdU Flow Kit (BD Pharmingen) were used to determine cellular proliferation.

[11] = tested on: CEM-C7H2, LOUCY and DAUDI cells; experiment: Apoptosis by PI uptake (flow cytometry), GC-sensitive cell lines; conditions: LOUCY overexpressing miR-103, Dex-treated
Text: as §1, §2

[12] = tested on: c-Myc; experiment: c-Myc expression (western blot / RQ); conditions: miR-103 overexpressing cells; further downregulated following Dex
Experimental: as §3, §4

[13] = tested on: c-Myb; experiment: c-Myb expression (western blot); conditions: CEM-C7H2 and MOLT-4 T-ALL cells
Experimental: as §3

[14] = tested on: miR-103; experiment: miR-103 level in patient peripheral blood lymphoblasts after PRED (qRT-PCR)
Experimental: Blood and bone marrow (BM) samples of pediatric acute lymphoblastic leukemia (ALL) and chronic lymphoblastic leukemia (CLL) patients were collected from hospitals for testing, and the treatment and clinical status of these patients cross-checked in a blind manner. The outline of the study was to collect blood samples from ALL patients at diagnosis, incubate the blood with or without PRED overnight and then measure miR-103 expression levels. 11 BMs of ALL patients and 6 BMs of normal pediatric donors were analyzed. Furthermore, peripheral blood samples from 8 pediatric ALL patients and 1 CLL patient were collected. The CLL and 5 ALL samples were treated with PRED in vitro while from the additional 3 ALL patients blood was taken at diagnosis and at day 1 following PRED treatment.
The outline of the study was to collect blood samples from acute lymphoblastic leukemia (ALL) patients at diagnosis, incubate the blood with or without PRED overnight and then measure miR-103 expression levels. 11 BMs of ALL patients and 6 BMs of normal pediatric donors were analyzed. Furthermore, peripheral blood samples from 8 pediatric ALL patients and 1 chronic lymphoblastic leukemia (CLL) patient were collected. The CLL and 5 ALL samples were treated with PRED in vitro while from the additional 3 ALL patients blood was taken at diagnosis and at day 1 following PRED treatment. […]

C[C@@H]1C[C@H]2[C@@H]3CCC4=CC(=O)C=C[C@]4(C)[C@@]3(F)[C@@H](O)C[C@]2(C)[C@@]1(O)C(=O)CO [Dex, Dexamethasone]
Number of miRNAs most significantly modulated by Dex [1]: 22
PANK3-GRE enrichment, anti-GR antibody, Dex-treated compared with untreated [2]: approximately 5%

miR-30d: human miRNA, SEQ ID NO: 3, overexpression plasmid (UGUAAACAUCCCCGACUGGAAG; listed as Homo sapiens)
Conferring GC sensitivity (GCIA) by miRNA transfection [3]: sensitized

miR-18a: human miRNA of miR-17˜92a, SEQ ID NO: 19, re-expressed from plasmid (UAAGGUGCAUCUAGUGCAGAUAG; listed as Homo sapiens) [reference compound]
miR-103-mediated GR upregulation after restoring miR-18a ([4]; miR-103 transfected cells transfected with miR-18a): inhibition of the GR upregulation mediated by miR-103
miR-103-mediated GCIA after re-expression of miR-17˜92a members [3]: counteracted the miR-103-mediated GCIA

miR-20a: human miRNA of miR-17˜92a, SEQ ID NO: 14, re-expressed from plasmid (UAAAGUGCUUAUAGUGCAGGUAG; listed as Homo sapiens) [reference compound]
BIM level after restoring miR-20a ([5]; miR-103 overexpressing BJAB transfected with miR-20a): re-suppressed
miR-103-mediated GCIA after re-expression of miR-17˜92a members [3]: counteracted the miR-103-mediated GCIA

miR-15b: human miRNA, SEQ ID NO: 4, overexpression plasmid (UAGCAGCACAUCAUGGUUUACA; listed as Homo sapiens)
Conferring GC sensitivity (GCIA) by miRNA transfection [3]: sensitized

miR-16: human miRNA, SEQ ID NO: 5, overexpression plasmid (UAGCAGCACGUAAAUAUUGGCG; listed as Homo sapiens)
Conferring GC sensitivity (GCIA) by miRNA transfection [3]: sensitized

miR-103: human miRNA, SEQ ID NO: 1 AGCAGCAUUGUACAGGGCUAUGA, expressed from overexpression plasmid (Table 3) (listed as Homo sapiens)
BIM expression on miR-103 overexpression ([5]; protein and mRNA, augmented by Dex): induced BIM upregulation both at the protein and mRNA levels
GR protein and mRNA on miR-103 overexpression ([4]; miR-103 overexpressing cells): both GR protein and mRNA upregulation
Total cell number in the culture [6]: reduced the total cell number
DVL1 and β-Catenin on miR-103 overexpression ([7]; Burkitt's lymphoma cells): downregulated
DVL1 expression on miR-103 overexpression ([7]; CEM-C7H2): even upregulated
β-Catenin level on miR-103 overexpression ([7]; CEM-C7H2): unaffected
β-Catenin level on miR-103 overexpression ([7]; MOLT4): even upregulated
miR-17˜92a expression on miR-103 overexpression [8]: reduced expression
Cycline E1 and CDK2 expression on miR-103 overexpression [9]: downregulated
Conferring GC sensitivity (GCIA) by miRNA transfection [3]: particularly effective in conferring GC sensitivity
Apoptosis of miR-103 overexpressing resistant cells with Dex ([3]; MOLT-4, CUTLL, BJAB, SUD136 overexpressing miR-103, Dex-treated): underwent significant apoptosis
Apoptosis on miR-103 overexpression without Dex ([3]; untreated cells): only a minor effect on apoptosis
Cell proliferation (BRDU) by miR-103 itself [10]: significantly reduced cell proliferation
GC induced apoptosis (GCIA) in miR-103 overexpressing cells [11]: became hyper-sensitive to GCIA
c-Myc expression on miR-103 overexpression [12]: reduced
c-Myb expression on miR-103 overexpression [13]: downregulates

C[C@]12C=CC(=O)C=C1CC[C@@H]1[C@@H]2C(=O)C[C@@]2(C)[C@H]1CC[C@]2(O)C(=O)CO [PRED, prednisone]
miR-103 level in peripheral malignant lymphoblasts after PRED ([14]; PRED good responders (PGR) ALL patients): upregulated
miR-103 level in peripheral malignant lymphoblasts after PRED ([14]; prednisone poor response (PPR) ALL patients): downregulated

miR-30e: human miRNA, SEQ ID NO: 2, overexpression plasmid (UGUAAACAUCCUUGACUGGAAG; listed as Homo sapiens)
Conferring GC sensitivity (GCIA) by miRNA transfection [3]: sensitized
